# Source: ChEMBL document CHEMBL1201862, “PubChem BioAssay data set” (2004)
#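 Following 48 hours of exposure in 96-well plates, responses at five concentrations were used to interpolate endpoints linearly. GI50 = concentration required for 50% inhibition of growth.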 Activity calls are given as the source filed them. Rule as the data show it: active = GI50 up to about 1.1 µM and inactive = higher.
# How the values were obtained:
# Test in all cases: NCI tumour cell line growth inhibition, 48 h
# [1] = tested on: HOP-92
# [2] = tested on: RPMI-8226
# [3] = tested on: 786-0
# [4] = tested on: HT-29
# [5] = tested on: SR
# [6] = tested on: HL-60
# [7] = tested on: OVCAR-4
# [8] = tested on: U-251
# [9] = tested on: Malme-3M
# [10] = tested on: SNB-19
# [11] = tested on: NCI-H460
# [12] = tested on: MCF7
# [13] = tested on: UACC-62
# [14] = tested on: PC-3
# [15] = tested on: ACHN
# [16] = tested on: BT-549
# [17] = tested on: KM12
# [18] = tested on: NCI-H226
# [19] = tested on: DU-145
# [20] = tested on: SF-295
# [21] = tested on: MOLT-4
# [22] = tested on: UACC-257
# [23] = tested on: NCI/ADR-RES
# [24] = tested on: EKVX
# [25] = tested on: HCT-116
# [26] = tested on: CAKI-1
# [27] = tested on: CCRF-CEM
# [28] = tested on: COLO 205
# [29] = tested on: HOP-62
# [30] = tested on: NCI-H522
# [31] = tested on: UO-31
# [32] = tested on: SK-MEL-5
# [33] = tested on: A549
# [34] = tested on: NCI-H23
# [35] = tested on: OVCAR-3
# [36] = tested on: SNB-75
# [37] = tested on: M14
# [38] = tested on: K562
# [39] = tested on: RXF 393
# [40] = tested on: MDA-MB-435
# [41] = tested on: SK-OV-3
# [42] = tested on: SF-268
# [43] = tested on: Hs-578T
# [44] = tested on: SK-MEL-28
# [45] = tested on: IGROV-1
# [46] = tested on: SW-620
# [47] = tested on: HCT-15
# [48] = tested on: TK-10
# [49] = tested on: HCC 2998
# [50] = tested on: MDA-N
# [51] = tested on: SK-MEL-2
# [52] = tested on: LOX IMVI
# [53] = tested on: OVCAR-8
# [54] = tested on: OVCAR-5
# [55] = tested on: T47D
# [56] = tested on: SN12C
# [57] = tested on: MDA-MB-231
# [58] = tested on: SF-539
smiles,measurement,setting,value
COc1ccc2c(c1OC(C)=O)C1=CC(=O)CCC13CCNC3C2 (centres undefined),GI50,[1],> 100 µM (inactive)
same,GI50,[2],> 100 µM (inactive)
same,GI50,[3],> 100 µM (inactive)
same,GI50,[4],> 100 µM (inactive)
same,GI50,[5],> 100 µM (inactive)
same,GI50,[6],> 100 µM (inactive)
same,GI50,[7],> 100 µM (inactive)
same,GI50,[8],> 100 µM (inactive)
same,GI50,[9],> 100 µM (inactive)
same,GI50,[10],> 100 µM (inactive)
same,GI50,[11],> 100 µM (inactive)
same,GI50,[12],> 100 µM (inactive)
same,GI50,[13],> 100 µM (inactive)
same,GI50,[14],> 100 µM (inactive)
same,GI50,[15],> 100 µM (inactive)
same,GI50,[16],> 100 µM (inactive)
same,GI50,[17],> 100 µM (inactive)
same,GI50,[18],> 100 µM (inactive)
same,GI50,[19],> 100 µM (inactive)
same,GI50,[20],> 100 µM (inactive)
same,GI50,[21],> 100 µM (inactive)
same,GI50,[22],> 100 µM (inactive)
same,GI50,[23],> 100 µM (inactive)
same,GI50,[24],> 100 µM (inactive)
same,GI50,[25],> 100 µM (inactive)
same,GI50,[26],> 100 µM (inactive)
same,GI50,[27],> 100 µM (inactive)
same,GI50,[28],> 100 µM (inactive)
same,GI50,[29],> 100 µM (inactive)
same,GI50,[30],> 100 µM (inactive)
same,GI50,[31],> 100 µM (inactive)
same,GI50,[32],> 100 µM (inactive)
same,GI50,[33],> 100 µM (inactive)
same,GI50,[34],> 100 µM (inactive)
same,GI50,[35],> 100 µM (inactive)
same,GI50,[36],> 100 µM (inactive)
same,GI50,[37],> 100 µM (inactive)
same,GI50,[38],> 100 µM (inactive)
same,GI50,[39],> 100 µM (inactive)
same,GI50,[40],> 100 µM (inactive)
same,GI50,[41],> 100 µM (inactive)
same,GI50,[42],> 100 µM (inactive)
same,GI50,[43],> 100 µM (inactive)
same,GI50,[44],> 100 µM (inactive)
same,GI50,[45],> 100 µM (inactive)
same,GI50,[46],> 100 µM (inactive)
same,GI50,[47],> 100 µM
same,GI50,[48],> 100 µM (inactive)
same,GI50,[49],> 100 µM (inactive)
same,GI50,[50],> 100 µM (inactive)
same,GI50,[51],> 100 µM (inactive)
same,GI50,[52],> 100 µM (inactive)
same,GI50,[53],> 100 µM (inactive)
same,GI50,[54],> 100 µM (inactive)
same,GI50,[55],> 100 µM (inactive)
same,GI50,[56],> 100 µM (inactive)
same,GI50,[57],> 100 µM (inactive)
Cc1ccc(O)c(Cc2nc3ccccc3nc2-c2cccc(Br)c2)c1,GI50,[1],> 100 µM (inactive)
same,GI50,[2],47.3 µM (inactive)
same,GI50,[3],57 µM (inactive)
same,GI50,[4],> 100 µM (inactive)
same,GI50,[5],33.2 µM (inactive)
same,GI50,[6],52.1 µM (inactive)
same,GI50,[7],> 100 µM (inactive)
same,GI50,[8],> 100 µM (inactive)
same,GI50,[9],> 100 µM (inactive)
same,GI50,[10],19.9 µM (inactive)
same,GI50,[11],> 100 µM (inactive)
same,GI50,[12],37.1 µM (inactive)
same,GI50,[13],> 100 µM (inactive)
same,GI50,[14],> 100 µM (inactive)
same,GI50,[15],55.1 µM (inactive)
same,GI50,[16],> 100 µM (inactive)
same,GI50,[17],> 100 µM (inactive)
same,GI50,[18],> 100 µM (inactive)
same,GI50,[19],> 100 µM (inactive)
same,GI50,[20],> 100 µM (inactive)
same,GI50,[21],25.2 µM (inactive)
same,GI50,[22],45.7 µM (inactive)
same,GI50,[23],> 100 µM (inactive)
same,GI50,[24],> 100 µM (inactive)
same,GI50,[25],48.5 µM (inactive)
same,GI50,[26],85.3 µM (inactive)
same,GI50,[27],28.4 µM (inactive)
same,GI50,[28],> 100 µM (inactive)
same,GI50,[29],> 100 µM (inactive)
same,GI50,[30],44.2 µM (inactive)
same,GI50,[31],89.1 µM (inactive)
same,GI50,[32],> 100 µM (inactive)
same,GI50,[33],> 100 µM (inactive)
same,GI50,[34],> 100 µM (inactive)
same,GI50,[35],> 100 µM (inactive)
same,GI50,[36],> 100 µM (inactive)
same,GI50,[58],> 100 µM (inactive)
same,GI50,[37],> 100 µM (inactive)
same,GI50,[38],34.4 µM (inactive)
same,GI50,[39],> 100 µM (inactive)
same,GI50,[40],> 100 µM (inactive)
same,GI50,[41],> 100 µM (inactive)
same,GI50,[42],> 100 µM (inactive)
same,GI50,[43],12.5 µM (inactive)
same,GI50,[45],46 µM (inactive)
same,GI50,[46],86.3 µM (inactive)
same,GI50,[47],22.3 µM
same,GI50,[48],> 100 µM (inactive)
same,GI50,[50],> 100 µM (inactive)
same,GI50,[51],> 100 µM (inactive)
same,GI50,[52],> 100 µM (inactive)
same,GI50,[53],> 100 µM (inactive)
same,GI50,[54],> 100 µM (inactive)
same,GI50,[55],> 100 µM (inactive)
same,GI50,[56],> 100 µM (inactive)
same,GI50,[57],> 100 µM (inactive)
CC(C)(C)c1ccc(O)c(C(O)c2ccccn2)c1 (centres undefined),GI50,[2],58.5 µM (inactive)
same,GI50,[3],61.8 µM (inactive)
same,GI50,[4],> 100 µM (inactive)
same,GI50,[5],70.1 µM (inactive)
same,GI50,[6],45.1 µM (inactive)
same,GI50,[8],46.1 µM (inactive)
same,GI50,[9],37.6 µM (inactive)
same,GI50,[10],> 100 µM (inactive)
same,GI50,[11],48.5 µM (inactive)
same,GI50,[12],77.8 µM (inactive)
same,GI50,[13],2.24 µM (inactive)
same,GI50,[14],86.1 µM (inactive)
same,GI50,[15],> 100 µM (inactive)
same,GI50,[16],> 100 µM (inactive)
same,GI50,[17],94 µM (inactive)
same,GI50,[18],85.1 µM (inactive)
same,GI50,[19],> 100 µM (inactive)
same,GI50,[20],57.5 µM (inactive)
same,GI50,[21],54.2 µM (inactive)
same,GI50,[23],48 µM (inactive)
same,GI50,[24],54.1 µM (inactive)
same,GI50,[25],61.4 µM (inactive)
same,GI50,[26],> 100 µM (inactive)
same,GI50,[27],38.2 µM (inactive)
same,GI50,[28],> 100 µM (inactive)
same,GI50,[29],> 100 µM (inactive)
same,GI50,[30],68.7 µM (inactive)
same,GI50,[31],39.7 µM (inactive)
same,GI50,[33],98.2 µM (inactive)
same,GI50,[34],56.1 µM (inactive)
same,GI50,[35],> 100 µM (inactive)
same,GI50,[36],> 100 µM (inactive)
same,GI50,[58],> 100 µM (inactive)
same,GI50,[38],42.9 µM (inactive)
same,GI50,[39],66.8 µM (inactive)
same,GI50,[40],> 100 µM (inactive)
same,GI50,[42],> 100 µM (inactive)
same,GI50,[43],91.2 µM (inactive)
same,GI50,[44],> 100 µM (inactive)
same,GI50,[45],> 10 µM (inactive)
same,GI50,[46],> 100 µM (inactive)
same,GI50,[47],35.4 µM
same,GI50,[48],> 100 µM (inactive)
same,GI50,[49],34.4 µM (inactive)
same,GI50,[50],> 100 µM (inactive)
same,GI50,[52],54.8 µM (inactive)
same,GI50,[53],> 100 µM (inactive)
same,GI50,[54],31.5 µM (inactive)
same,GI50,[55],34.9 µM (inactive)
same,GI50,[56],74 µM (inactive)
same,GI50,[57],> 100 µM (inactive)
